The values that follow come from US10858355B2, “Inhibitors of phosphatidylinositol 3-kinase gamma” (AstraZeneca AB, priority 2016, dated 2020).

This experiment concerns the target recombinant human PI3Kγ (aa144-1102)-6His (Homo sapiens (Human), UniProt P48736). The experiment in a line: Test A: Enzymatic Activity Assay for Rec Human PI3Kγ (ADP-Glo). It counts as biochemical. As to conditions: 20 μM ATP, 80 μM DiC8-PIP2, 1.2 nM PI3Kγ, 15 min pre-incubation, 60 min reaction; for IC50: read-out: PI3Kγ activity, pIC50 (converted). Here is the method: Pharmacological Activity Test A: Enzymatic Activity Assay for Rec Human PI3Kγ
The activity of recombinant human PI3Kγ (aa144-1102)-6His was determined by measuring the ADP level after phosphorylation of DiC8-PIP2 using a commercially available ADP-Glo™ kit from Promega. The assay was carried out in white low volume 384 well plates in a final volume of 14 μl at rt. The assay conditions contained the following: 50 mM Tris buffer pH 7.4, 2.1 mM DTT, 3 mM MgCl2, 0.05% CHAPS, 20 μM ATP, 80 μM DiC8-PIP2 and 1.2 nM PI3Kγ. […] Routinely, inhibitors were pre-incubated with 3 μl of PI3Kγ for 15 min prior to the addition of […] substrate mixture for a further 60 min enzyme reaction. The phosphorylation was stopped with the addition of 3 μl ADP-Glo™ reagent (stop solution) followed by a 40 min incubation. Prior to detection 6 μl of ADP-Glo™ Kinase Detection Reagent was added and the plates were read in a micro plate reader using a Luminescence filter.
On the technique in general: In ADP-Glo the light output rises with the ADP produced.

The structures appear in SMILES notation.

recombinant human PI3Kγ (aa144-1102)-6His, sequence (P48736 144-1102): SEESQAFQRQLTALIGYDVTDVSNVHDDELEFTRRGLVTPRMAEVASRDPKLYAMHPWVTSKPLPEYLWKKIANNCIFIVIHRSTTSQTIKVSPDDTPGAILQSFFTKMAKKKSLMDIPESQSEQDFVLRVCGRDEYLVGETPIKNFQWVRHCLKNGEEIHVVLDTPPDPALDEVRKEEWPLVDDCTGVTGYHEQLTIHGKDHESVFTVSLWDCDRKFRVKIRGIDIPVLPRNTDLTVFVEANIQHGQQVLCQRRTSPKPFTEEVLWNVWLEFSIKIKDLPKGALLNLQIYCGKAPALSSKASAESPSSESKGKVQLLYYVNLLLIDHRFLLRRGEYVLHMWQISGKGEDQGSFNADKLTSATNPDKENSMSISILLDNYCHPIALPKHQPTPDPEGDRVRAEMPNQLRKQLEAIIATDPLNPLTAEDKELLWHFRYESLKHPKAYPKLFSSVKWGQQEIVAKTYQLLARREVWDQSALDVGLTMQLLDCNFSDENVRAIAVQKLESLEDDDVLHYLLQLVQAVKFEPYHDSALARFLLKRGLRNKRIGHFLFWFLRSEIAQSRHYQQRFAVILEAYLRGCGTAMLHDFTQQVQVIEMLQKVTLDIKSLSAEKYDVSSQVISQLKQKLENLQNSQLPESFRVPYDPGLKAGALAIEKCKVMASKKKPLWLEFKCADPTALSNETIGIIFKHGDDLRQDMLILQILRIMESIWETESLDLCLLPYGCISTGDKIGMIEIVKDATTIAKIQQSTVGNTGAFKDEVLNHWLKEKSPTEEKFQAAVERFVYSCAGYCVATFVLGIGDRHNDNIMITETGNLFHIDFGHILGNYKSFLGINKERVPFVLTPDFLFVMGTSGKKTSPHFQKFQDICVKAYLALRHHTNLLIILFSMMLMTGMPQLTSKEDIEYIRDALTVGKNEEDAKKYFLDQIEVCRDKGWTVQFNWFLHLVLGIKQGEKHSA

Turning to `CC(=O)Nc1ncc(-c2cc3c(c(S(C)(=O)=O)c2)C(=O)N([C@@H](C)C2CC2)C3)s1` [Example 2, N-(5-{2-[(1S)-1-Cyclopropylethyl]-7-(methylsulfonyl)-1-oxo-2,3-dihydro-1H-isoindol-5-yl}-1,3-thiazol-2-yl)acetamide], the “PI3Kγ activity, pIC50” value is 9.0.
Still for that read-out and setting: then `CC(=O)Nc1nc(C)c(-c2cc3c(c(S(C)(=O)=O)c2)C(=O)N(C(C)C)C3)s1` [Example 3, N-{4-Methyl-5-[7-(methylsulfonyl)-1-oxo-2-(propan-2-yl)-2,3-dihydro-1H-isoindol-5-yl]-1,3-thiazol-2-yl}acetamide], with 8.8; and `CC(=O)Nc1nc(C)c(-c2cc3c(c(NC(C)=O)c2)C(=O)N([C@@H](C)C2CC2)C3)s1` [Example 5, N-(5-{7-(Acetylamino)-2-[(1S)-1-cyclopropylethyl]-1-oxo-2,3-dihydro-1H-isoindol-5-yl}-4-methyl-1,3-thiazol-2-yl)acetamide], with 9.0; and `CC(=O)Nc1nc(C)c(-c2cc3c(c(S(=O)(=O)N(C)C)c2)C(=O)N([C@@H](C)C2CC2)C3)s1` [Example 7, N-(5-{2-[(1S)-1-Cyclopropylethyl]-7-(dimethylsulfamoyl)-1-oxo-2,3-dihydro-1H-isoindol-5-yl}-4-methyl-1,3-thiazol-2-yl)acetamide], with 9.1.
Still for that read-out and setting: then `CNS(=O)(=O)c1cc(-c2cnc(NC(C)=O)s2)cc2c1C(=O)N([C@@H](C)C1CC1)C2` [Example 8, N-(5-{2-[(1S)-1-Cyclopropylethyl]-7-(methylsulfamoyl)-1-oxo-2,3-dihydro-1H-isoindol-5-yl}-1,3-thiazol-2-yl)acetamide], with 9.0; and `CC(=O)Nc1nc(C)c(-c2cc3c(c(S(=O)(=O)NC4CCC4)c2)C(=O)N([C@@H](C)C2CC2)C3)s1` [Example 10, N-(5-{7-(Cyclobutylsulfamoyl)-2-[(1S)-1-cyclopropylethyl]-1-oxo-2,3-dihydro-1H-isoindol-5-yl}-4-methyl-1,3-thiazol-2-yl)acetamide], with 8.9.
The same measure, in the same setting: then `CNS(=O)(=O)c1cc(-c2sc(NC(C)=O)nc2C)cc2c1C(=O)N(C(C)C)C2` [Example 11, N-{4-Methyl-5-[7-(methylsulfamoyl)-1-oxo-2-(propan-2-yl)-2,3-dihydro-1H-isoindol-5-yl]-1,3-thiazol-2-yl}acetamide], with 8.8.
In the case of `CC(=O)Nc1ncc(-c2cc3c(c(S(N)(=O)=O)c2)C(=O)N([C@@H](C)C2CC2)C3)s1` [Example 12, N-(5-{2-[(1S)-1-Cyclopropylethyl]-1-oxo-7-sulfamoyl-2,3-dihydro-1H-isoindol-5-yl}-1,3-thiazol-2-yl)acetamide], the IC50 was 1.26 nM.
As for `CC(=O)Nc1nc(C)c(-c2cc3c(c(S(=O)(=O)NCC4CC4)c2)C(=O)N([C@@H](C)C2CC2)C3)s1` [Example 13, N-(5-{2-[(1S)-1-Cyclopropylethyl]-7-[(cyclopropylmethyl)sulfamoyl]-1-oxo-2,3-dihydro-1H-isoindol-5-yl}-4-methyl-1,3-thiazol-2-yl)acetamide], the “PI3Kγ activity, pIC50” value is on record as 9.0.
Still for that read-out and setting: next, `CC(=O)Nc1nc(C)c(-c2cc3c(c(S(=O)(=O)NC4CC4)c2)C(=O)N([C@@H](C)C2CC2)C3)s1` [Example 14, N-(5-{2-[(1S)-1-Cyclopropylethyl]-7-(cyclopropylsulfamoyl)-1-oxo-2,3-dihydro-1H-isoindol-5-yl}-4-methyl-1,3-thiazol-2-yl)acetamide]: 9.0; `CCNS(=O)(=O)c1cc(-c2sc(NC(C)=O)nc2C)cc2c1C(=O)N([C@@H](C)C1CC1)C2` [Example 15, N-(5-{2-[(1S)-1-Cyclopropylethyl]-7-(ethylsulfamoyl)-1-oxo-2,3-dihydro-1H-isoindol-5-yl}-4-methyl-1,3-thiazol-2-yl)acetamide]: 9.4.
Regarding `CC(=O)Nc1nc(C)c(-c2cc3c(c(S(=O)(=O)NC4COC4)c2)C(=O)N([C@@H](C)C2CC2)C3)s1` [Example 16, N-(5-{2-[(1S)-1-Cyclopropylethyl]-7-(oxetan-3-ylsulfamoyl)-1-oxo-2,3-dihydro-1H-isoindol-5-yl}-4-methyl-1,3-thiazol-2-yl)acetamide], the “PI3Kγ activity, pIC50” value is reported as 9.2.
Still for that read-out and setting: next, `CC(=O)Nc1nc(C)c(-c2cc3c(c(S(=O)(=O)NC4CC(F)(F)C4)c2)C(=O)N([C@@H](C)C2CC2)C3)s1` [Example 17, N-(5-{2-[(1S)-1-Cyclopropylethyl]-7-[(3,3-difluorocyclobutyl)sulfamoyl]-1-oxo-2,3-dihydro-1H-isoindol-5-yl}-4-methyl-1,3-thiazol-2-yl)acetamide]: 8.9.
Take `CC(=O)Nc1nc(C)c(-c2cc3c(c(S(=O)(=O)NCC4(CF)CC4)c2)C(=O)N([C@@H](C)C2CC2)C3)s1` [Example 19, N-(5-{2-[(1S)-1-Cyclopropylethyl]-7-({[1-(fluoromethyl)cyclopropyl]methyl}sulfamoyl)-1-oxo-2,3-dihydro-1H-isoindol-5-yl}-4-methyl-1,3-thiazol-2-yl)acetamide]: the IC50 was 0.398 nM.
For `CC(=O)Nc1nc(C)c(-c2cc3c(c(S(=O)(=O)NCC(F)(F)F)c2)C(=O)N([C@@H](C)C2CC2)C3)s1` [Example 20, N-(5-{2-[(1S)-1-Cyclopropylethyl]-1-oxo-7-[(2,2,2-trifluoroethyl)sulfamoyl]-2,3-dihydro-1H-isoindol-5-yl}-4-methyl-1,3-thiazol-2-yl)acetamide], the “PI3Kγ activity, pIC50” value was 9.2.
Still for that read-out and setting: then `CC(=O)Nc1nc(C)c(-c2cc3c(c(S(N)(=O)=O)c2)C(=O)N(C(C)C)C3)s1` [Example 21, N-{4-Methyl-5-[1-oxo-2-(propan-2-yl)-7-sulfamoyl-2,3-dihydro-1H-isoindol-5-yl]-1,3-thiazol-2-yl}acetamide], with 8.9.
Regarding `CC(=O)Nc1ncc(-c2cc3c(c(NS(C)(=O)=O)c2)C(=O)N([C@@H](C)C2CC2)C3)s1` [Example 22, N-(5-{2-[(1S)-1-Cyclopropylethyl]-7-[(methylsulfonyl)amino]-1-oxo-2,3-dihydro-1H-isoindol-5-yl}-1,3-thiazol-2-yl)acetamide], the IC50 is 0.794 nM.
With `CC(=O)Nc1nc(C)c(-c2cc3c(c(NS(=O)(=O)C4CC4)c2)C(=O)N([C@@H](C)C2CC2)C3)s1` [Example 23, N-(5-{2-[(1S)-1-Cyclopropylethyl]-7-[(cyclopropylsulfonyl)amino]-1-oxo-2,3-dihydro-1H-isoindol-5-yl}-4-methyl-1,3-thiazol-2-yl)acetamide], the “PI3Kγ activity, pIC50” value stood at 9.2.
Still for that read-out and setting: next, `CCCS(=O)(=O)Nc1cc(-c2sc(NC(C)=O)nc2C)cc2c1C(=O)N([C@@H](C)C1CC1)C2` [Example 24, N-(5-{2-[(1S)-1-Cyclopropylethyl]-1-oxo-7-[(propylsulfonyl)amino]-2,3-dihydro-1H-isoindol-5-yl}-4-methyl-1,3-thiazol-2-yl)acetamide]: 9.0; `CCS(=O)(=O)Nc1cc(-c2sc(NC(C)=O)nc2C)cc2c1C(=O)N([C@@H](C)C1CC1)C2` [Example 25, N-(5-{2-[(1S)-1-Cyclopropylethyl]-7-[(ethylsulfonyl)amino]-1-oxo-2,3-dihydro-1H-isoindol-5-yl}-4-methyl-1,3-thiazol-2-yl)acetamide]: 9.1; `CC(=O)Nc1nc(C)c(-c2cc3c(c(NS(=O)(=O)C(C)(C)C)c2)C(=O)N([C@@H](C)C2CC2)C3)s1` [Example 26, N-(5-{7-[(tert-Butylsulfonyl)amino]-2-[(1S)-1-cyclopropylethyl]-1-oxo-2,3-dihydro-1H-isoindol-5-yl}-4-methyl-1,3-thiazol-2-yl)acetamide]: 9.0.
On the same count and under the same terms, next, `CC(=O)Nc1nc(C)c(-c2cc3c(c(NS(=O)(=O)CC4CC4)c2)C(=O)N([C@@H](C)C2CC2)C3)s1` [Example 28, N-[5-(2-[(1S)-1-Cyclopropylethyl]-7-{[(cyclopropylmethyl)sulfonyl]amino}-1-oxo-2,3-dihydro-1H-isoindol-5-yl)-4-methyl-1,3-thiazol-2-yl]acetamide]: 9.1; `CC(=O)Nc1nc(C)c(-c2cc3c(c(NS(=O)(=O)c4cn(C)nc4C)c2)C(=O)N([C@@H](C)C2CC2)C3)s1` [Example 29, N-[5-(2-[(1S)-1-Cyclopropylethyl]-7-{[(1,3-dimethyl-1H-pyrazol-4-yl)sulfonyl]amino}-1-oxo-2,3-dihydro-1H-isoindol-5-yl)-4-methyl-1,3-thiazol-2-yl]acetamide]: 8.9.
Turning to `CNS(=O)(=O)c1cc(-c2sc(NC(C)=O)nc2Cl)cc2c1C(=O)N([C@@H](C)C1CC1)C2` [Example 30, N-(4-Chloro-5-{2-[(1S)-1-cyclopropylethyl]-7-(methylsulfamoyl)-1-oxo-2,3-dihydro-1H-isoindol-5-yl}-1,3-thiazol-2-yl)acetamide], the IC50 is 1.26 nM.
Take `CNS(=O)(=O)c1cc(-c2cnc3c(N)nccn23)cc2c1C(=O)N([C@@H](C)C1CC1)C2` [Example 31, 6-(8-Aminoimidazo[1,2-a]pyrazin-3-yl)-2-[(1S)-1-cyclopropylethyl]-N-methyl-3-oxo-2,3-dihydro-1H-isoindole-4-sulfonamide]: the “PI3Kγ activity, pIC50” value came to 8.7.
